This note sets out measurements from ChEMBL document CHEMBL1152321, “Recent advances in the chemistry and biology of new generation taxoids” (J Nat Prod, 2009).

The subject of test [1] is MCF7. As to the kind of experiment: Cytotoxicity against human MCF7 cells expressing P-glycoprotein after 72 hrs. The class given is functional, cell-based. The following applies: MCF7, 72 h.
Test [2] is described as follows: Cytotoxicity against human LCC-6 cells expressing P-glycoprotein after 72 hrs. The format is functional, cell-based. The following applies: LCC-6, 72 h.
Test [3] relates to NCI-H460. Nature of the test: Cytotoxicity against human H460 cells after 72 hrs. The class given is functional, cell-based. Conditions: NCI-H460, 72 h.
Test [4] deals with MCF7. Nature of the test: Resistance factor, ratio of IC50 for human MCF7 cells expressing P-glycoprotein to IC50 for P-glycoprotein deficient wild type human MCF7 cells. The format is functional.
Test [5] is described as follows: Resistance factor, ratio of IC50 for human LCC-6 cells expressing P-glycoprotein to IC50 for P-glycoprotein deficient wild type human LCC-6 cells. On the set-up: reference not given here. The format is functional.
The test system of test [6] is MCF7. As to the kind of experiment: Cytotoxicity against P-glycoprotein deficient wild type human MCF7 cells after 72 hrs. The format is functional, cell-based. Conditions: MCF7, 72 h.
A short description of test [7]: Cytotoxicity against P-glycoprotein deficient wild type human LCC-6 cells after 72 hrs. The format is functional, cell-based. The following applies: LCC-6, 72 h.
In test [8] the test system is HT-29. As to the kind of experiment: Cytotoxicity against human HT-29 cells after 72 hrs. The class given is functional, cell-based. Conditions: HT-29, 72 h.

Regarding `CC(=O)O[C@@]12CO[C@@H]1C[C@H](O)[C@@]1(C)C(=O)[C@H](OC(=O)N(C)C)C3=C(C)[C@@H](OC(=O)[C@H](O)[C@@H](NC(=O)OC(C)(C)C)C(F)F)C[C@@](O)([C@@H](OC(=O)c4cccc(F)c4)[C@H]21)C3(C)C`, the IC50 amounted to 8.13 nM in test [1]; 10.6 nM in test [2]; 0.2 nM in test [3]; 0.52 nM in test [6]; 0.69 nM in test [7]; 0.35 nM in test [8]. Also, the Ratio came to 16 in test [4] and 15 in test [5].
With `CC(=O)O[C@H]1C(=O)[C@@]2(C)[C@H]([C@H](OC(=O)c3cccc(F)c3)[C@]3(O)C[C@H](OC(=O)[C@H](O)[C@@H](NC(=O)OC(C)(C)C)C(F)(F)F)C(C)=C1C3(C)C)[C@]1(OC(C)=O)CO[C@@H]1C[C@@H]2O`, the IC50 amounted to 5.58 nM in test [1]; 5.93 nM in test [2]; 0.49 nM in test [3]; 0.45 nM in test [6]; 0.38 nM in test [7]; 1.11 nM in test [8]. In addition, the Ratio in test [4] is 13; in test [5], 16.
In the case of `COc1cccc(C(=O)O[C@H]2[C@@H]3[C@]4(OC(C)=O)CO[C@@H]4C[C@H](O)[C@@]3(C)C(=O)[C@H](OC(C)=O)C3=C(C)[C@@H](OC(=O)[C@H](O)[C@@H](NC(=O)OC(C)(C)C)C(F)F)C[C@]2(O)C3(C)C)c1`, the IC50 in test [1] stood at 4.16 nM; in test [2] it was 5.57 nM; in test [3], 0.38 nM; in test [6], 0.34 nM; in test [7] it was 0.26 nM; in test [8], 0.52 nM. For the same molecule, the Ratio is on record as 12 in test [4] and 21 in test [5].
Consider `COC(=O)O[C@H]1C(=O)[C@@]2(C)[C@H]([C@H](OC(=O)c3cccc(Cl)c3)[C@]3(O)C[C@H](OC(=O)[C@H](O)[C@@H](NC(=O)OC(C)(C)C)C(F)(F)F)C(C)=C1C3(C)C)[C@]1(OC(C)=O)CO[C@@H]1C[C@@H]2O`, for which the 50% inhibitory concentration (IC50) in test [1] stood at 4.72 nM; in test [2], 5.08 nM; in test [3] it was 0.43 nM; in test [6], 0.65 nM; in test [7], 0.29 nM; in test [8], 0.68 nM. Further, the Ratio is on record as 7.3 in test [4] and 18 in test [5].
For `CCC(=O)O[C@H]1C(=O)[C@@]2(C)[C@H]([C@H](OC(=O)c3cccc(F)c3)[C@]3(O)C[C@H](OC(=O)[C@H](O)[C@@H](NC(=O)OC(C)(C)C)C(F)F)C(C)=C1C3(C)C)[C@]1(OC(C)=O)CO[C@@H]1C[C@@H]2O`, the IC50 in test [1] stood at 7.24 nM; in test [2], 4.63 nM; in test [3], 0.41 nM; in test [6] it was 0.53 nM; in test [7], 0.88 nM; in test [8], 0.86 nM. Moreover, the Ratio in test [4] was 14; in test [5], 3.5.
`COc1cccc(C(=O)O[C@H]2[C@@H]3[C@]4(OC(C)=O)CO[C@@H]4C[C@H](O)[C@@]3(C)C(=O)[C@H](OC(C)=O)C3=C(C)[C@@H](OC(=O)[C@H](O)[C@@H](NC(=O)OC(C)(C)C)C(F)(F)F)C[C@]2(O)C3(C)C)c1`: the 50% inhibitory concentration (IC50) in test [1] came to 8.8 nM; in test [2], 3.99 nM; in test [3], 0.38 nM; in test [6] it was 0.32 nM; in test [7], 0.33 nM; in test [8] it was 0.69 nM. The Ratio in test [4] was determined as 28; in test [5], 12.
Take `COC(=O)O[C@H]1C(=O)[C@@]2(C)[C@H]([C@H](OC(=O)c3cccc(Cl)c3)[C@]3(O)C[C@H](OC(=O)[C@H](O)[C@@H](NC(=O)OC(C)(C)C)C(F)F)C(C)=C1C3(C)C)[C@]1(OC(C)=O)CO[C@@H]1C[C@@H]2O`: the IC50 in test [1] is 2.08 nM; in test [2], 1.82 nM; in test [3], 0.25 nM; in test [6] it was 0.26 nM; in test [7], 0.13 nM; in test [8] it was 0.29 nM. In addition, the Ratio in test [4] was 8; in test [5] it was 14.
With `COC(=O)O[C@H]1C(=O)[C@@]2(C)[C@H]([C@H](OC(=O)c3cccc(F)c3)[C@]3(O)C[C@H](OC(=O)[C@H](O)[C@@H](NC(=O)OC(C)(C)C)C(F)F)C(C)=C1C3(C)C)[C@]1(OC(C)=O)CO[C@@H]1C[C@@H]2O`, the IC50 is 11.4 nM in test [1]; 12.6 nM in test [2]; 0.3 nM in test [3]; 0.59 nM in test [6]; 0.86 nM in test [7]; 0.43 nM in test [8]. Moreover, the values for the Ratio in test [4] and in test [5] were 19 and 15, respectively.
On to `CC(=O)O[C@H]1C(=O)[C@@]2(C)[C@H]([C@H](OC(=O)c3cccc(N=[N+]=[N-])c3)[C@]3(O)C[C@H](OC(=O)[C@H](O)[C@@H](NC(=O)OC(C)(C)C)C(F)F)C(C)=C1C3(C)C)[C@]1(OC(C)=O)CO[C@@H]1C[C@@H]2O`, for which the half-inhibitory concentration (IC50) in test [1] is 1.68 nM; in test [2], 1.57 nM; in test [3] it was 0.48 nM; in test [6] it was 0.32 nM; in test [7], 0.22 nM; in test [8], 0.57 nM. Besides, the Ratio is listed as 5.3 in test [4] and 7.1 in test [5].
As to `CC(=O)O[C@@]12CO[C@@H]1C[C@H](O)[C@@]1(C)C(=O)[C@H](OC(=O)N(C)C)C3=C(C)[C@@H](OC(=O)[C@H](O)[C@@H](NC(=O)OC(C)(C)C)C(F)F)C[C@@](O)([C@@H](OC(=O)c4cccc(N=[N+]=[N-])c4)[C@H]21)C3(C)C`, the IC50 came out at 1.44 nM in test [1]; 1.69 nM in test [2]; 0.52 nM in test [3]; 0.37 nM in test [6]; 0.29 nM in test [7]; 0.4 nM in test [8]. In addition, the Ratio in test [4] is given as 3.9; in test [5], 5.8.
Take `CC(=O)O[C@@]12CO[C@@H]1C[C@H](O)[C@@]1(C)C(=O)[C@H](OC(=O)N(C)C)C3=C(C)[C@@H](OC(=O)[C@H](O)[C@@H](NC(=O)OC(C)(C)C)C(F)(F)F)C[C@@](O)([C@@H](OC(=O)c4cccc(Cl)c4)[C@H]21)C3(C)C`: the IC50 in test [1] was 1.02 nM; in test [2], 2.55 nM; in test [3], 0.42 nM; in test [6], 0.12 nM; in test [7] it was 0.27 nM; in test [8], 0.45 nM. In addition, the Ratio in test [4] amounted to 8.5; in test [5] it was 9.4.
Turning to `COC(=O)O[C@H]1C(=O)[C@@]2(C)[C@H]([C@H](OC(=O)c3cccc(F)c3)[C@]3(O)C[C@H](OC(=O)[C@H](O)[C@@H](NC(=O)OC(C)(C)C)C(F)(F)F)C(C)=C1C3(C)C)[C@]1(OC(C)=O)CO[C@@H]1C[C@@H]2O`, the IC50 in test [1] was 4.88 nM; in test [2] it was 5.81 nM; in test [3], 0.61 nM; in test [6] it was 0.31 nM; in test [7], 0.39 nM; in test [8] it was 0.85 nM. Further, the Ratio in test [4] came to 16; in test [5], 15.
For `CCC(=O)O[C@H]1C(=O)[C@@]2(C)[C@H]([C@H](OC(=O)c3cccc(OC)c3)[C@]3(O)C[C@H](OC(=O)[C@H](O)[C@@H](NC(=O)OC(C)(C)C)C(F)F)C(C)=C1C3(C)C)[C@]1(OC(C)=O)CO[C@@H]1C[C@@H]2O`, the concentration for half-maximal inhibition (IC50) in test [1] worked out at 4.05 nM; in test [3], 0.4 nM; in test [6], 1.14 nM; in test [7] it was 0.69 nM; in test [8], 0.59 nM.
For `CC(=O)O[C@@]12CO[C@@H]1C[C@H](O)[C@@]1(C)C(=O)[C@H](OC(=O)N(C)C)C3=C(C)[C@@H](OC(=O)[C@H](O)[C@@H](NC(=O)OC(C)(C)C)C(F)(F)F)C[C@@](O)([C@@H](OC(=O)c4cccc(F)c4)[C@H]21)C3(C)C`, the IC50 in test [1] amounted to 2.64 nM; in test [2], 5.57 nM; in test [3], 0.5 nM; in test [6], 0.32 nM; in test [7], 0.32 nM; in test [8] it was 0.76 nM. Moreover, the Ratio in test [4] is 8.3; in test [5] it was 17.
On to `CC(=O)O[C@H]1C(=O)[C@@]2(C)[C@H]([C@H](OC(=O)c3cccc(N=[N+]=[N-])c3)[C@]3(O)C[C@H](OC(=O)[C@H](O)[C@@H](NC(=O)OC(C)(C)C)C(F)(F)F)C(C)=C1C3(C)C)[C@]1(OC(C)=O)CO[C@@H]1C[C@@H]2O`, for which the IC50 in test [1] was 3.85 nM; in test [2], 4 nM; in test [3] it was 0.2 nM; in test [6], 0.47 nM; in test [7], 1.18 nM; in test [8], 0.5 nM. The values for the Ratio in test [4] and in test [5] were 8.2 and 3.4, respectively.
Regarding `CCC(=O)O[C@H]1C(=O)[C@@]2(C)[C@H]([C@H](OC(=O)c3cccc(N=[N+]=[N-])c3)[C@]3(O)C[C@H](OC(=O)[C@H](O)[C@@H](NC(=O)OC(C)(C)C)C(F)(F)F)C(C)=C1C3(C)C)[C@]1(OC(C)=O)CO[C@@H]1C[C@@H]2O`, the half-maximal inhibitory concentration (IC50) in test [1] amounted to 1.61 nM; in test [2], 2.56 nM; in test [3], 0.2 nM; in test [6], 0.38 nM; in test [7] it was 1.09 nM; in test [8] it was 0.4 nM. The Ratio in test [4] turned out to be 4.2; in test [5], 2.3.
With `COC(=O)O[C@H]1C(=O)[C@@]2(C)[C@H]([C@H](OC(=O)c3cccc(N=[N+]=[N-])c3)[C@]3(O)C[C@H](OC(=O)[C@H](O)[C@H](C=C(F)F)NC(=O)OC(C)(C)C)C(C)=C1C3(C)C)[C@]1(OC(C)=O)CO[C@@H]1C[C@@H]2O`, the values for the IC50 in test [1] and in test [6] were 0.4 nM and 0.078 nM, respectively. The Ratio in test [4] was determined as 5.3.
As to `CCC(=O)O[C@H]1C(=O)[C@@]2(C)[C@H]([C@H](OC(=O)c3cccc(OC)c3)[C@]3(O)C[C@H](OC(=O)[C@H](O)[C@H](C=C(F)F)NC(=O)OC(C)(C)C)C(C)=C1C3(C)C)[C@]1(OC(C)=O)CO[C@@H]1C[C@@H]2O`, the IC50 was determined as 0.57 nM in test [1] and 0.34 nM in test [6]. Besides, the Ratio in test [4] came to 1.7.
